“And” between values parts separate entries of the source, which are not always exact repeats. Equal entries are not always repeated. Blank lines part the entries; values can stand above or below the compound they belong to.
Tested on: 885512-296-R-J2-PDC complex spheroid viability
Assay: Anticancer human tumor 885512-296-R-J2-PDC patient-derived breast carcinoma cell line growth inhibition [GQUAD]
Details: for viability, T/C: stronger effect = lower value
From the text: DNA G-quadruplex Stabilizer Agents in Combinations in Complex Spheroids
A high-throughput screen of multi-cell type tumor spheroids was designed to identify active combinations of DNA G-quadruplex stabilizer agents and targeted small molecules. Complex spheroids include a stromal component modeled by human endothelial cells (HUVEC) and fibroblasts modeled by human mesenchymal stem cells (MSCs). The concentration ranges selected for each drug and investigational agent were based upon clinically achievable concentrations if the clinical Cmax of the agent was known.
Compounds. The drugs and investigational agents: pidnarulex (CX-5461; NSC782164), APTO-253 (NSC789042), BRACO-19 (NSC847499), peposertib (NSC802822), ceralasertib (NSC780249), elimusertib (NSC800525), camonsertib (NSC841442), AZD-1390 (NSC803789), olaparib (NSC753686), talazoparib (NSC767125), ART-558 (NSC835418), sotorasib (NSC818433), MRTX-1133 (NSC836407), SN-38 (NSC673596), topotecan (NSC609699), etoposide (NSC141540), doxorubicin (NSC123127), gemcitabine (NSC613327), 5-fluorouracil (NSC19893), paclitaxel (NSC125973), vemurafenib (NSC761431), panobinostat (NSC761190), R-306465 (JNJ-16241199; NSC773264), adavosertib (NSC754352), TP-3654 (NSC805149), carboplatin (NSC241240), KSQ-4279 (NSC840948), and staurosporine (NSC755774) were obtained from the National Cancer Institute (NCI) Developmental Therapeutics Program Chemical Repository (34). The FDA-approved anticancer drug set is available from the NCI Developmental Therapeutics Program. […] The stock solutions were prepared in dimethyl sulfoxide (DMSO, Sigma-Aldrich, St. Louis, MO, cat. D2650) at 800-fold the tested concentration and stored at -70 degrees C prior to their use. All drugs and investigational agents were tested over a range starting from a high concentration at or near the clinical Cmax and decreasing in half-log increments. If the clinical Cmax for an agent had not been determined, the highest concentration tested was 10 microM.
2.3 Cell Culture. All cells were maintained in an incubator at 37 degrees C and 5% CO2 with 95% humidity. The PDC lines were cultured according to standard operating procedures established by the NCI PDMR. All PDCs were thawed and cultured in Matrigel-coated flasks prepared with a working solution of 1X Ham's F-12 nutrient mix, without supplementation (Invitrogen, cat. 11765054), 100 U/mL penicillin-streptomycin (Invitrogen, cat. 15140122), and 2.5% Matrigel (Corning Inc., cat. 354248) for the first three passages. The 857933-349-R-J2-PDC line was cultured in 6C/Colon 1B media, which includes advanced DMEM/F-12 (Thermo Fisher Scientific, cat. 12634028), 10 mM HEPES (Thermo Fisher Scientific, cat. 15630080), 1X GlutaMAX supplement (Thermo Fisher Scientific, cat. 35050061), 0.1 mg/mL primocin (InvivoGen, cat. ant-pm-2), 10% defined fetal bovine serum, heat inactivated (HyClone Laboratories Inc., cat. SH30070.03HI), 50% L-WRN conditioned media (ATCC, cat. CRL-3276), 1.25 mM N-Acetyl-L-cysteine (Sigma-Aldrich, cat. A9165), 10 mM nicotinamide (Sigma-Aldrich, cat. N0636), 1X B-27 supplement (Thermo Fisher Scientific, cat. 17504044), 1X N-2 supplement (Thermo Fisher Scientific, cat. 17502048), 10 microM Y-27632 dihydrochloride (Tocris Bioscience, cat. 1254), and 50 ng/mL human EGF recombinant protein (Thermo Fisher Scientific, cat. PHG0311). The 485176-168-R4-J1-PDC line was cultured in Panc media, which includes all 6C/Colon 1B media components plus 100 ng/mL human FGF-10 (Thermo Fisher Scientific, cat. 100-26), 500 nM SB-431542 (Selleckchem, cat. S1067), and gastrin (Tocris, cat. 3006).
[…]
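Further: spheroids exposed to the compounds for one week.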
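Wherever viability, T/C is given: percent of tumor spheroid viability relative to DMSO vehicle control wells.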

Structure (SMILES): COc1cc(C2c3cc4c(cc3C(OC3OC5COC(C)OC5C(O)C3O)C3COC(=O)C23)OCO4)cc(OC)c1O (stereo not given) + Cc1[nH]c2ccc(F)cc2c1-c1nc2c3cccnc3c3ncccc3c2[nH]1
IC50 (curve of first compound, second compound 0.0316 µM): 739 nM | IC50 (curve of first compound, second compound 0.1 µM): 806 nM | IC50 (curve of first compound, second compound 0.316 µM): 715 nM | IC50 (curve of first compound, second compound 1 µM): 578 nM | IC50 (curve of first compound, second compound 3.16 µM): < 31.6 nM | IC50 (curve of first compound, second compound 10 µM): < 31.6 nM | viability, T/C (second compound 0.0316 µM, first compound 0.0316 µM): 96.3% | viability, T/C (second compound 0.0316 µM, first compound 0.1 µM): 86.7% | viability, T/C (second compound 0.0316 µM, first compound 0.316 µM): 77.3% | viability, T/C (second compound 0.0316 µM, first compound 1 µM): 41% | viability, T/C (second compound 0.0316 µM, first compound 3.16 µM): 13.6% | viability, T/C (second compound 0.0316 µM, first compound 10 µM): 10.1% | viability, T/C (second compound 0.1 µM, first compound 0.0316 µM): 117% | viability, T/C (second compound 0.1 µM, first compound 0.1 µM): 91.5% | viability, T/C (second compound 0.1 µM, first compound 0.316 µM): 94.2% | viability, T/C (second compound 0.1 µM, first compound 1 µM): 39.9% | viability, T/C (second compound 0.1 µM, first compound 3.16 µM): 11.4% | viability, T/C (second compound 0.1 µM, first compound 10 µM): 10% | viability, T/C (second compound 0.316 µM, first compound 0.0316 µM): 91.8% | viability, T/C (second compound 0.316 µM, first compound 0.1 µM): 98.4% | viability, T/C (second compound 0.316 µM, first compound 0.316 µM): 82.1% | viability, T/C (second compound 0.316 µM, first compound 1 µM): 36.1% | viability, T/C (second compound 0.316 µM, first compound 3.16 µM): 16.5% | viability, T/C (second compound 0.316 µM, first compound 10 µM): 8.49% | viability, T/C (second compound 1 µM, first compound 0.0316 µM): 70.5% | viability, T/C (second compound 1 µM, first compound 0.1 µM): 76% | viability, T/C (second compound 1 µM, first compound 0.316 µM): 62.3% | viability, T/C (second compound 1 µM, first compound 1 µM): 37.9% | viability, T/C (second compound 1 µM, first compound 3.16 µM): 13.7% | viability, T/C (second compound 1 µM, first compound 10 µM): 6.78% | viability, T/C (second compound 3.16 µM, first compound 0.0316 µM): 21.3% | viability, T/C (second compound 3.16 µM, first compound 0.1 µM): 13.6% | viability, T/C (second compound 3.16 µM, first compound 0.316 µM): 15.8% | viability, T/C (second compound 3.16 µM, first compound 1 µM): 7.13% | viability, T/C (second compound 3.16 µM, first compound 3.16 µM): 4.87% | viability, T/C (second compound 3.16 µM, first compound 10 µM): 2.93% | viability, T/C (second compound 10 µM, first compound 0.0316 µM): 1.61% | viability, T/C (second compound 10 µM, first compound 0.1 µM): 3.08% | viability, T/C (second compound 10 µM, first compound 0.316 µM): 1.52% | viability, T/C (second compound 10 µM, first compound 1 µM): 1.53% | viability, T/C (second compound 10 µM, first compound 3.16 µM): 1.51% | viability, T/C (second compound 10 µM, first compound 10 µM): 1.37%

Structure (SMILES): CC[C@@]1(O)C(=O)OCc2c1cc1n(c2=O)Cc2cc3c(CN(C)C)c(O)ccc3nc2-1
viability, T/C (compound 0.000999 µM): 116% and 100% and 107% | viability, T/C (compound 0.00316 µM): 93.6% and 104% and 96.9% | viability, T/C (compound 0.00999 µM): 84% and 86.7% and 91.6% | viability, T/C (compound 0.0316 µM): 47.7% and 30.2% and 36.7% | viability, T/C (compound 0.0999 µM): 11.4% and 8.49% and 7.63% | viability, T/C (compound 0.316 µM): 4.95% and 2.59% and 5.86% | IC50 (curve of compound): 27.4 nM and 21.2 nM and 23.9 nM

Structure (SMILES): COc1ncnc(C2CC2)c1-c1ncc2cnn(Cc3ccc(-c4nc(C(F)(F)F)cn4C(C)C)cc3)c2n1
viability, T/C (compound 0.0316 µM): 104% (2×) and 93% | viability, T/C (compound 0.1 µM): 101% and 86% and 90.6% | viability, T/C (compound 0.316 µM): 100% and 59.6% and 104% | viability, T/C (compound 1 µM): 94% and 35.3% and 100% | viability, T/C (compound 3.16 µM): 99.2% and 25.8% and 107%

Further lines, with some results ahead:

IC50 (curve of compound): > 10000 nM
Structure (SMILES): O=c1[nH]cc(F)c(=O)[nH]1
viability, T/C (compound 0.0316 µM): 94.2% and 107% and 96.5% | viability, T/C (compound 0.1 µM): 102% and 97.5% and 105% | viability, T/C (compound 0.316 µM): 113% and 107% and 99.3% | viability, T/C (compound 1 µM): 123% and 89.3% and 95.8% | viability, T/C (compound 3.16 µM): 71.7% and 58.4% and 66% | viability, T/C (compound 10 µM): 52.8% and 55% and 55.4%

IC50 (curve of compound): 8900 nM and 7180 nM and 7700 nM
Structure (SMILES): O=C(c1cc(Cc2n[nH]c(=O)c3ccccc23)ccc1F)N1CCN(C(=O)C2CC2)CC1
viability, T/C (compound 0.0316 µM): 99.8% and 85.3% and 97.1% | viability, T/C (compound 0.1 µM): 117% and 107% and 96.9% | viability, T/C (compound 0.316 µM): 112% and 116% and 95.1% | viability, T/C (compound 1 µM): 152% and 127% and 126% | viability, T/C (compound 3.16 µM): 144% and 122% (2×) | viability, T/C (compound 10 µM): 41.6% and 24.8% and 33%

IC50 (compound alone, run of 04/22/2024): 6.43 µM [middle of 11 runs]
Structure (SMILES): CN(C)c1ccc(Nc2c3ccc(NC(=O)CCN4CCCC4)cc3nc3cc(NC(=O)CCN4CCCC4)ccc23)cc1
viability, T/C (compound 0.0316 µM): 100% [middle of 12 runs] | viability, T/C (compound 0.1 µM): 102% [middle of 12 runs] | viability, T/C (compound 0.316 µM): 105% [middle of 12 runs] | viability, T/C (compound 1 µM): 102% [middle of 12 runs] | viability, T/C (compound 3.16 µM): 103% [middle of 12 runs] | viability, T/C (compound 10 µM): 21.1% [middle of 12 runs]
